Patent US20030013640A1, “Integrin linked kinase modulation of leukocyte trafficking” (priority 2001, published 2003)

Tests used:
[1] = test system: neutrophils (PMN); assay: IL-1β-induced neutrophil accumulation in mouse dorsal air-pouch; assay type: in vivo; details: sc, given 2 h prior, 4 h, read-out: ED50 for inhibition of IL-1β-induced PMN migration
Method: Acute accumulation of neutrophils (PMN) into a specific tissue site is a hallmark of the inflammatory response, and can be reproduced in vivo in the mouse following IL-1β injection into a preformed s.c. dorsal air-pouch. This model has the advantage of a quick (maximal at 4 h) and intense (between 5 and 8 million PMN per animal) response (Perretti & Flower (1993) J. Immunol. 150:992-999).
Six-day-old air-pouches are formed on the back of mice by injection of 2.5 ml of air on day 0 and day 3. On day 6, 5 ng of murine recombinant IL-1β is injected into the air-pouch, or vehicle only, i.e. 0.5% carboxymethylcellulose in PBS. Cellular influx into the air-pouches is evaluated at the 4 h time-point, by killing animals by CO2 exposure, and washing the cavities with 2 ml of sterile PBS supplemented with 3 mM EDTA and 25 U/ml heparin. Cells in the lavage fluids are stained in Turk's solution and differential counting is done with a light microscope.
This model is not sensitive to indomethacin and BWA4C, but is sensitive to PAF antagonists, anti-adhesion molecule reagents, tachykinin NK1 antagonists, etc. The effects of ILK inhibitors are determined in groups pre-treated with various concentrations of ILK inhibitors in systemic administration doses in the range of 10-300 mg/kg, administered every 1-4 hours prior to the cytokine, and up to the time of euthanasia.

[2] = test system: leukocyte-endothelium interaction; assay: Intravital microscopy of IL-1β-inflamed mouse mesenteric vascular bed; assay type: in vivo; details: 0.5 mg/kg s.c. 1 hour prior to IL-1β
Method: Mice are injected i.p. with 20 ng mouse recombinant IL-1β and left at liberty until the beginning of the experiment. Control animals receive sterile saline alone (1 ml per rat i.p.). Animals are anaesthetised with Inactin™, shaved on the neck and abdominal areas, and a tracheotomy is performed to facilitate breathing during the experimentation. Cautery incisions are made along the abdominal line, the mesentery is exposed and placed on a viewing plexiglass stage.
The preparation is mounted on a Zeiss Axioskop and is then transilluminated with a 12-V, 100-W halogen light source. […] A video time-date generator projects the time, date and stopwatch function onto the monitor.
Particular care is taken to assure observation of the mesenteric vascular bed exactly 2 h after injection of the cytokine. Mesenteries are superfused with thermostated (37° C.) bicarbonate-buffered solution (pH=7.4, gassed with 5% CO2/95% N2) at a rate of 2 ml/min. Three to five randomly selected post-capillary venules (diameter between 20-40 μm; length of at least 100 μm) are observed for each rat. Off-line analysis is performed to quantify the extent of cell adhesion (the number of adherent leukocytes in 100 μm length vessel wall), and leukocyte emigration (the number of cells that had emigrated out of the vessel up to 50 μm, 50 to 100 μm and 100-150 μm away from the vessel wall in parallel with 100 μm vessel segments).
IL-1β produces an intense response (>20 adherent cells per 100 μm length) that is modulated in part by endogenous PAF, ICAM-1 and the chemokine CINC. Therefore, agents that interfere with these mediators are identified using this technique. The effects of ILK inhibitors are determined in groups pre-treated with various concentrations of ILK inhibitors, in systemic administration doses in the range of 10-300 mg/kg, and administered every 1-4 hours prior to the cytokine, and up to the 2 hours after (timing dependent on pharmacokinetics of specific ILK inhibitor). Pre-treatment with ILK inhibitors is expected to result in a significant decrease in the number of leucocytes that are recruited.
Mouse mesenteric vascular bed was inflamed with interleukin-1β. The anti-inflammatory properties of KP-401-A (an ILK inhibitor) were compared to dexamethasone (positive control) as determined by intravital microscopy. […]
Cell rolling was measured by white blood cell velocity. Cell adhesion was quantified by counting, for each vessel, the number of adherent neutrophils in a 100 μm length. Leukocyte emigration from the microcirculation into the tissue was quantified by counting the number of cells that had emigrated up to 50 μm away from the wall of the 100 μm vessel segments. […]

[3] = test system: neutrophils (PMN); assay: Zymosan-induced PMN accumulation in mouse peritoneal cavity; assay type: in vivo
Method: (§1) Zymosan (an insoluble inflammogen derived from the yeast wall, Ajuebor et al. (1998) J. Leukoc. Biol. 63, 108-116) is injected i.p. in mice, control animals receive only sterile saline. Cellular influx into the peritoneal cavities is evaluated either at the 4 h time-point (for PMN) or at 24 h (for monocytes), by killing animals by CO2 exposure, and washing the cavities with 3 ml of sterile PBS supplemented with 3 mM EDTA and 25 U/ml heparin. Cells in the lavage fluids are stained in Turk's solution and differential counting is performed with a light microscope.
PMN influx ranges between 15-20 million cells per mouse, and is sensitive to anti-chemokine (i.e. antibodies to MCP-1) and anti-adhesion reagents (i.e. antibody to CD11b) as well as to more classical anti-inflammatory drugs, e.g. PAF antagonists; indomethacin, 5-lipoxygenase inhibitors, etc. The positive control is dexamethasone, which reduces zymosan-induced PMN influx with an approximate ED50 of 0.9 mg/kg s.c. (given 2 h prior to zymosan). The effects of ILK inhibitors are determined in groups pre-treated with various concentrations of ILK inhibitors, usually in systemic administration doses in the range of 10-300 mg/kg, and usually administered every 1-4 hours prior to the cytokine, and up to the time of euthanasia, (dependent on pharmacokinetics of specific ILK inhibitor).

[4] = test system: monocytes; assay: Zymosan-induced monocyte accumulation in peritoneal cavity (24 h); assay type: in vivo; details: Mus musculus, sc, given 2 h prior to zymosan, 24 h time-point
Method: as §1
Monocyte accumulation at the 24 h time-point is in the order of 10-14 million cells per animal. The effect of known drugs on this parameter have not been well investigated, however it is sensitive to anti-chemokine therapy (i.e. antibodies to MCP-1) and to dexamethasone. The latter is the positive control with an approximate ED50 of 0.9 mg/kg s.c. (given 2 h prior to zymosan). The effects of ILK inhibitors are determined in groups pre-treated with various concentrations of ILK inhibitors, usually in systemic administration doses in the range of 10-300 mg/kg, and usually administered every 1-4 hours prior to the cytokine, and up to the 2 hours after (timing dependent on pharmacokinetics of specific ILK inhibitor).

[5] = test system: monocytes; assay: MCP-1-induced monocyte accumulation in peritoneal cavity; assay type: in vivo; details: sc, 0.1 mg/kg per mouse s.c. 1 h prior to MCP-1
Method: Monocyte chemoattractant protein-1 (MCP-1) given i.p. (1 μg) induces a selective accumulation of monocytes which is maximal at the 6 h post-injection (between 1-3 million monocytes per mouse), above the mild effect of the vehicle (0.25 ml of sterile saline) alone. After MCP-1 injection, animals are killed by CO2 exposure, and cavities washed with 3 ml of sterile PBS supplemented with 3 mM EDTA. Cells in the lavage fluids are stained in Turk's solution and differential counting is performed using a light microscope by a scientist unaware of the experimental groups. Monocyte influx is also confirmed by staining with F4/80 and FACS analysis. The effects of ILK inhibitors are determined in groups pre-treated with various concentrations of ILK inhibitor in systemic administration doses in the range of 10-300 mg/kg, administered every 1-4 hours prior to the cytokine, and up to the time of euthanasia (timing dependent on pharmacokinetics of specific ILK inhibitor). […] The positive control is dexamethasone which produces approximately 50% inhibition at the dose of 0.1 mg/kg per mouse given s.c. 1 h prior to MCP-1.

[6] = test system: neutrophils (PMN); details: mouse, in vivo; cited from earlier work
[7] = test system: neutrophils (PMN); details: classical anti-inflammatory drugs; cited from earlier work

Row | SMILES | ED50 [1] [mg/kg] | Adherent Cells (no. 100 μm) ([2]; 2 hours after IL-1β) | Emigrated Cells (no. 50 × 100 μm^2) ([2]; 2 hours after IL-1β) | Cell Flux (no. per min) ([2]; observed 2 hours after IL-1β) | Cell Rolling (VWBC) ([2]; white blood cell velocity, 2 hours after IL-1β) | ED50 ([3]; Mus musculus, Neutrophil, sc, given 2 h prior to zymosan, 4 h time-point, read-out: ED50 for reduction of zymosan-induced PMN influx) [mg/kg] | PMN Accumulation (× 10^6 cells) ± SE ([3]; dose 1.5 mg/kg s.c., 60 min prior to and 60 min following i.p. Zymosan 1 mg/mouse, measured 4 h later, mean ± SE, n = 5) | ED50 [4] [mg/kg] | inhibition at 0.1 mg/kg [5] [%] | sensitivity of IL-1β air-pouch model to the drug [6] | sensitivity of zymosan-induced PMN influx to the drug [7]
1 | C[C@@H]1C[C@H]2[C@@H]3CCC4=CC(=O)C=C[C@]4(C)[C@@]3(F)[C@@H](O)C[C@]2(C)[C@@]1(O)C(=O)CO [dexamethasone] | ~0.15 | 1.4 ± 0.1 | 1.8 ± 0.3 | 7.0 ± 1.5 | 17 ± 2.5 | ~0.9 | 4.0 ± 0.79 × 10^6 cells | ~0.9 | ~50 |  | 
2 | CC(=O)N(O)C/C=C/c1cccc(Oc2ccccc2)c1 [BWA4C] |  |  |  |  |  |  |  |  |  | not sensitive | 
3 | COc1ccc2c(c1)c(CC(=O)O)c(C)n2C(=O)c1ccc(Cl)cc1 [indomethacin] |  |  |  |  |  |  |  |  |  | not sensitive | sensitive
